One block for each molecule: values may come before it.
Legend:
[1] = tested on: MCF7; assay: Cytotoxicity against human MCF7 cells assessed as inhibition of cell growth measured after 3 days by MTT assay; format: functional, cell-based; conditions: MCF7, 72 h
[2] = Cytotoxicity against African green monkey Vero cells assessed as inhibition of cell growth measured after 3 days by MTT assay; format: toxicity, cell-based; conditions: African green monkey (Chlorocebus sabaeus)
[3] = Inhibition of HER2 expression in human MCF7 cells assessed as positive expression region (M2) at 1000 nM incubated for 24 hrs by flow cytometry analysis (reference value: 99.09%); format: functional
[4] = Inhibition of EGFR expression in human MCF7 cells assessed as positive expression region (M2) at 1000 nM incubated for 24 hrs by flow cytometry analysis (reference value: 99.36%); format: functional
[5] = Inhibition of EGFR expression in human MCF7 cells assessed as positive expression region (M2) at 100 nM incubated for 24 hrs by flow cytometry analysis (reference value: 99.36%); format: functional
[6] = Inhibition of EGFR expression in human MCF7 cells assessed as negative expression region (M1) at 25 nM incubated for 24 hrs by flow cytometry analysis (reference value: 0.66%); format: functional
[7] = Inhibition of HER2 expression in human MCF7 cells assessed as positive expression region (M2) at 50 nM incubated for 24 hrs by flow cytometry analysis (reference value: 99.09%); format: functional
[8] = Inhibition of HER2 expression in human MCF7 cells assessed as positive expression region (M2) at 500 nM incubated for 24 hrs by flow cytometry analysis (reference value: 99.09%); format: functional
[9] = biological target: Epidermal growth factor receptor (Homo sapiens, UniProt P00533); assay: Inhibition of wild type EGFR (unknown origin) incubated for 40 mins in presence of ATP by kinase glo max assay
[10] = Inhibition of EGFR expression in human MCF7 cells assessed as positive expression region (M2) at 50 nM incubated for 24 hrs by flow cytometry analysis (reference value: 99.36%); format: functional
[11] = Inhibition of HER2 expression in human MCF7 cells assessed as negative expression region (M1) at 25 nM incubated for 24 hrs by flow cytometry analysis (reference value: 0.98%); format: functional
[12] = Inhibition of HER2 expression in human MCF7 cells assessed as negative expression region (M1) at 100 nM incubated for 24 hrs by flow cytometry analysis (reference value: 0.98%); format: functional
[13] = Inhibition of EGFR expression in human MCF7 cells assessed as positive expression region (M2) at 25 nM incubated for 24 hrs by flow cytometry analysis (reference value: 99.36%); format: functional
[14] = Inhibition of EGFR expression in human MCF7 cells assessed as negative expression region (M1) at 50 nM incubated for 24 hrs by flow cytometry analysis (reference value: 0.66%); format: functional
[15] = Inhibition of EGFR expression in human MCF7 cells assessed as negative expression region (M1) at 500 nM incubated for 24 hrs by flow cytometry analysis (reference value: 0.66%); format: functional
[16] = Inhibition of EGFR expression in human MCF7 cells assessed as negative expression region (M1) at 1000 nM incubated for 24 hrs by flow cytometry analysis (reference value: 0.66%); format: functional
[17] = Inhibition of HER2 expression in human MCF7 cells assessed as positive expression region (M2) at 100 nM incubated for 24 hrs by flow cytometry analysis (reference value: 99.09%); format: functional
[18] = Inhibition of HER2 expression in human MCF7 cells assessed as negative expression region (M1) at 500 nM incubated for 24 hrs by flow cytometry analysis (reference value: 0.98%); format: functional
[19] = Inhibition of EGFR expression in human MCF7 cells assessed as positive expression region (M2) at 500 nM incubated for 24 hrs by flow cytometry analysis (reference value: 99.36%); format: functional
[20] = Inhibition of HER2 expression in human MCF7 cells assessed as positive expression region (M2) at 25 nM incubated for 24 hrs by flow cytometry analysis (reference value: 99.09%); format: functional
[21] = Inhibition of HER2 expression in human MCF7 cells assessed as negative expression region (M1) at 1000 nM incubated for 24 hrs by flow cytometry analysis (reference value: 0.98%); format: functional
[22] = Inhibition of EGFR expression in human MCF7 cells assessed as negative expression region (M1) at 100 nM incubated for 24 hrs by flow cytometry analysis (reference value: 0.66%); format: functional
[23] = Inhibition of HER2 expression in human MCF7 cells assessed as negative expression region (M1) at 50 nM incubated for 24 hrs by flow cytometry analysis (reference value: 0.98%); format: functional

Chain of Epidermal growth factor receptor (P00533 whole entry): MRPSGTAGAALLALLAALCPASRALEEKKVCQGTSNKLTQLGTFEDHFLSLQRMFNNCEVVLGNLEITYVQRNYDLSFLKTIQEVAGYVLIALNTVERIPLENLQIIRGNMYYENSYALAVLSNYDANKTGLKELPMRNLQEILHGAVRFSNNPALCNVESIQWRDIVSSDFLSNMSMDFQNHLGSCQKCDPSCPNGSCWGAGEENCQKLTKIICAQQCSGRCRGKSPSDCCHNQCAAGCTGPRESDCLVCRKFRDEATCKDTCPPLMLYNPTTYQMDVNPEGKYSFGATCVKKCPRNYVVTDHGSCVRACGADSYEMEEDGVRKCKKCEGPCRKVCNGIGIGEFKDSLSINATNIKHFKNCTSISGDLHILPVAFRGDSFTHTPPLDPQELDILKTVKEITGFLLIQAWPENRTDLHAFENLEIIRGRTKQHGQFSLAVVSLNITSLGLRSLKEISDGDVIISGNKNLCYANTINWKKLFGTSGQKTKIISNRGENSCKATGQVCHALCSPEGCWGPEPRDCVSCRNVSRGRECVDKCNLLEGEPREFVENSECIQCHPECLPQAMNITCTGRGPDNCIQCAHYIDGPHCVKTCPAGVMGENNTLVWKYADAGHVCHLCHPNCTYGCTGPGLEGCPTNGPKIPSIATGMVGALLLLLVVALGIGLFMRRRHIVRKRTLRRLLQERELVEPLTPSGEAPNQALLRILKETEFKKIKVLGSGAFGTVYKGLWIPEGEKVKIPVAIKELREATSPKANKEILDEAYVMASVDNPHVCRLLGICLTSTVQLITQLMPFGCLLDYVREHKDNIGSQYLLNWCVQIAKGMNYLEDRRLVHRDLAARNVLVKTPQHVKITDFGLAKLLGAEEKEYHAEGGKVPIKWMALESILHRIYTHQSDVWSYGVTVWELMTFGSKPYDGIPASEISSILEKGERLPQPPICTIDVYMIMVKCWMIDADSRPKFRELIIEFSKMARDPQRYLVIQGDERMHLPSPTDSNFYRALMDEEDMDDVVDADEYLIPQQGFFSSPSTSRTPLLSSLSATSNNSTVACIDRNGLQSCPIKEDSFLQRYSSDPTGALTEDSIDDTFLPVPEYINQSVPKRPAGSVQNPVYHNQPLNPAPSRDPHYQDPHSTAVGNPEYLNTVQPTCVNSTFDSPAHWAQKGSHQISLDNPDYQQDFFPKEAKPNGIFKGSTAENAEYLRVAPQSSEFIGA

Structure (SMILES): COc1ccc(NC(=O)C2=C(C)NC(=O)NC2/C=C\c2ccccc2)c(OC)c1 (centres undefined)
- IC50 [1]: 19.3 µM
- IC50 at 3 days [2]: 30.4 µM

Structure (SMILES): CCOc1cc(C2NC(=S)NC(C)=C2C(=O)Nc2ccc(OC)cc2OC)ccc1O (centres undefined)
- IC50 [1]: 25.3 µM
- IC50 at 3 days [2]: 57.4 µM

Structure (SMILES): COc1ccc(NC(=O)C2=C(C)NC(=O)NC2c2ccccc2O)c(OC)c1 (centres undefined)
- IC50 [1]: 30.1 µM
- IC50 at 3 days [2]: 45.3 µM

Structure (SMILES): COc1ccc(NC(=O)C2=C(C)NC(=S)NC2c2ccc(C)cc2)c(OC)c1 (centres undefined)
- IC50 [1]: 38.2 µM
- IC50 at 3 days [2]: 53.6 µM

- IC50 [9]: 0.0698 µM
Structure (SMILES): COc1ccc(NC(=O)C2=C(C)NC(=O)NC2c2ccc(OC)c(OC)c2)c(OC)c1 (centres undefined)
- inhibition at 1 µM [3]: 6.78%
- inhibition at 1 µM [4]: 3.42%
- IC50 [1]: 14.2 µM
- IC50 at 3 days [2]: 30.1 µM
- inhibition at 0.1 µM [5]: 32.5%
- inhibition at 0.025 µM [6]: 18.1%
- inhibition at 0.05 µM [7]: 36.8%
- inhibition at 0.5 µM [8]: 10.3%
- inhibition at 0.05 µM [10]: 60%
- inhibition at 0.025 µM [11]: 32.7%
- inhibition at 0.1 µM [12]: 79.3%
- inhibition at 0.025 µM [13]: 82.2%
- inhibition at 0.05 µM [14]: 40.2%
- inhibition at 0.5 µM [15]: 94.4%
- inhibition at 1 µM [16]: 96.7%
- inhibition at 0.1 µM [17]: 21%
- inhibition at 0.5 µM [18]: 89.9%
- inhibition at 0.5 µM [19]: 5.73%
- inhibition at 0.025 µM [20]: 67.9%
- inhibition at 1 µM [21]: 93.4%
- inhibition at 0.1 µM [22]: 68.3%
- inhibition at 0.05 µM [23]: 63.8%

Structure (SMILES): COc1ccc(NC(=O)C2=C(C)NC(=S)NC2/C=C\c2ccccc2)c(OC)c1 (centres undefined)
- IC50 [1]: 24.5 µM
- IC50 at 3 days [2]: 47.3 µM

Structure (SMILES): COc1ccc(C2NC(=O)NC(C)=C2C(=O)Nc2ccc(OC)cc2OC)cc1 (centres undefined)
- IC50 [1]: 24.3 µM
- IC50 at 3 days [2]: 56.2 µM

Structure (SMILES): COc1ccc(NC(=O)C2=C(C)NC(=O)NC2c2cccc(Cl)c2)c(OC)c1 (centres undefined)
- IC50 [1]: 38.2 µM
- IC50 at 3 days [2]: 73.4 µM

Structure (SMILES): COc1ccc(NC(=O)C2=C(C)NC(=S)NC2c2ccco2)c(OC)c1 (centres undefined)
- IC50 [1]: 38.3 µM
- IC50 at 3 days [2]: 45.5 µM

Structure (SMILES): COc1ccc(NC(=O)C2=C(C)NC(=O)NC2c2ccc(O)c(OC)c2)c(OC)c1 (centres undefined)
- IC50 [1]: 16.1 µM
- IC50 at 3 days [2]: 42.9 µM

Structure (SMILES): COc1ccc(NC(=O)C2=C(C)NC(=O)NC2)c(OC)c1
- IC50 [1]: 81.5 µM
- IC50 at 3 days [2]: 87.2 µM

Structure (SMILES): COc1ccc(NC(=O)C2=C(C)NC(=S)NC2c2cccc(O)c2)c(OC)c1 (centres undefined)
- IC50 [1]: 34.8 µM
- IC50 at 3 days [2]: 69.2 µM

Structure (SMILES): COc1ccc(NC(=O)C2=C(C)NC(=O)NC2c2ccccc2)c(OC)c1 (centres undefined)
- IC50 [1]: 38.2 µM
- IC50 at 3 days [2]: 60.4 µM

Structure (SMILES): COc1ccc(NC(=O)C2=C(C)NC(=O)NC2c2ccco2)c(OC)c1 (centres undefined)
- IC50 [1]: 27.4 µM
- IC50 at 3 days [2]: 62.4 µM

Structure (SMILES): COc1ccc(NC(=O)C2=C(C)NC(=O)NC2c2ccc(N(C)C)cc2)c(OC)c1 (centres undefined)
- IC50 [1]: 19.5 µM
- IC50 at 3 days [2]: 53.1 µM

Structure (SMILES): COc1ccc(NC(=O)C2=C(C)NC(=O)NC2c2ccc(O)cc2)c(OC)c1 (centres undefined)
- IC50 [1]: 29.3 µM
- IC50 at 3 days [2]: 55.2 µM

Structure (SMILES): COc1ccc(NC(=O)C2=C(C)NC(=O)NC2c2cccc(O)c2)c(OC)c1 (centres undefined)
- IC50 [1]: 30.4 µM
- IC50 at 3 days [2]: 55.7 µM

Structure (SMILES): COc1ccc(C2NC(=S)NC(C)=C2C(=O)Nc2ccc(OC)cc2OC)cc1 (centres undefined)
- IC50 [1]: 28.1 µM
- IC50 at 3 days [2]: 32.8 µM

Structure (SMILES): COc1ccc(NC(=O)C2=C(C)NC(=O)NC2c2ccc(OCc3ccccc3)c(OC)c2)c(OC)c1 (centres undefined)
- inhibition at 1 µM [3]: 3.21%
- inhibition at 1 µM [4]: 1.49%
- IC50 [1]: 9.38 µM
- IC50 at 3 days [2]: 18.4 µM
- inhibition at 0.1 µM [5]: 16.1%
- inhibition at 0.025 µM [6]: 37.6%
- inhibition at 0.05 µM [7]: 22.4%
- inhibition at 0.5 µM [8]: 5.16%
- inhibition at 0.05 µM [10]: 33.8%
- inhibition at 0.025 µM [11]: 57.5%
- inhibition at 0.1 µM [12]: 88.7%
- inhibition at 0.025 µM [13]: 63.2%
- inhibition at 0.05 µM [14]: 66.7%
- inhibition at 0.5 µM [15]: 91.1%
- inhibition at 1 µM [16]: 98.6%
- inhibition at 0.1 µM [17]: 11.6%
- inhibition at 0.5 µM [18]: 95%
- inhibition at 0.5 µM [19]: 9.15%
- inhibition at 0.025 µM [20]: 43%
- inhibition at 1 µM [21]: 96.9%
- inhibition at 0.1 µM [22]: 84.3%
- inhibition at 0.05 µM [23]: 77.9%

Reference: ChEMBL document CHEMBL5584246, “Novel dihydropyrimidines as promising EGFR & HER2 inhibitors: Insights from experimental and computational studies” (Eur J Med Chem, 2024)
